14 compounds from ChEMBL document CHEMBL1156139, “N-Bridged bicyclic sulfonamides as inhibitors of gamma-secretase” (Bioorg Med Chem Lett, 2009) can be followed below.

Series [1] is described as follows: Half life in rat. The conditions noted are these: in vivo. The format is ADME, organism-based.
The subject of series [2] is Liver microsomes. Conditions: human, 0.5 h, 1 µM.
The conditions of series [3]: mouse, microsomes, 0.5 h, 1 µM.
A short description of series [4]: Oral bioavailability in rat. It counts as ADME, organism-based. Conditions: in vivo.
A short description of series [5]: in vitro. The conditions noted are these: human, liver microsomes.
The nature of series [6]: Clearance in rat. The format is ADME, organism-based. Conditions: in vivo.
A short description of series [7]: in vitro. The conditions noted are these: mouse, liver microsomes. For orientation: Liver microsomes are a subcellular fraction often used to study metabolism.
Series [8] can be described thus: AUC in rat. The conditions noted are these: plasma. The format is ADME, organism-based.
Series [9] in a line: in vitro. The conditions noted are these: mouse, liver microsomes. This is another data set of the same source.
The conditions of series [10]: mouse, microsomes, 0.5 h, 2 µM.
In series [11] the test system is Liver microsomes. The conditions noted are these: human, 0.5 h, 2 µM.
Series [12] is described as follows: in vitro. Conditions: human, liver microsomes. This is another data set of the same source.

On to `N#CC1CC2Cc3[nH]ncc3C(C1)N2S(=O)(=O)c1ccc(Cl)cc1` (stereo in doubt), for which the half-life (usually the time needed for the level to fall by half in the phase considered) in [1] came to 1.02 h. In addition, the Stability with Liver microsomes [2] was 70%; in [3], 74%. In series [4], the bioavailability (commonly dose-corrected exposure relative to a reference, in per cent) is 21%. Besides, the share remaining – broadly, the share of the starting amount still present when the sample was taken – at 0.5 h, 2 µM in “in vitro [5]” (Stability) was found to be 45%; in the series “in vitro [7]” (Stability) it was 81%. The clearance (in general, a measure of how efficiently the substance is removed, as volume per time) in series [6] was 1.71 L/h/kg. For the same compound, the AUC (commonly concentration integrated over time) in series [8] was 3400 nM·h.

Consider `O=S(=O)(c1ccc(Cl)cc1)N1C2Cc3[nH]ncc3C1CC(/C=C\C(F)(F)F)C2` (stereo unspecified), for which the amount remaining at 0.5 h, 1 µM in “in vitro [9]” (Stability) came to 17%; in the series “in vitro [12]” (Stability), 38%. For the same compound, the Stability result (in series [10]; in the series on Liver microsomes [11]) was “Not Active” in each case.

With `N#CC1CC2Cc3[nH]ncc3C(C1)N2S(=O)(=O)c1ccc(Cl)cc1` (stereo in doubt; form 1), the Stability with Liver microsomes [2] stood at 72%; in series [3] it was 80%.

As to `O=S(=O)(c1ccc(Cl)cc1)N1C2COCC1c1cn[nH]c1C2` (stereo in doubt), in [1], the half-life was found to be 1.15 h. The Stability came to 78% in the series with Liver microsomes [2], 80% in [3], 100% in [10] and 86% with Liver microsomes [11]. The compound further returned a bioavailability in [4] of 19%. In addition, the clearance in series [6] is 1.87 L/h/kg. The AUC in series [8] came out at 2900 nM·h.

For the compound `O=S(=O)(c1ccc(Cl)cc1)N1C2Cc3[nH]ncc3C1CC(/C=C\Cl)C2` (stereo unspecified), the values for the share remaining at 0.5 h, 1 µM in the series “in vitro [9]” (Stability) and in “in vitro [12]” (Stability) were 3% and 14%, respectively. Moreover, the Stability entry (in series [10]; in the series with Liver microsomes [11]) was “Not Active” each time.

Turning to `O=S(=O)(c1ccc(Cl)cc1)N1C2Cc3[nH]ncc3C1CC(/C=C/C(F)(F)F)C2` (stereo unspecified), the share remaining at 0.5 h, 1 µM in the series “in vitro [9]” (Stability) is 36%; in “in vitro [12]” (Stability), 6%. For the same compound, the share remaining at 0.5 h, 2 µM was 2% in “in vitro [5]” (Stability) and 39% in “in vitro [7]” (Stability).

With `O=S(=O)(c1ccc(Cl)cc1)N1C2COCC1c1cn[nH]c1C2` (stereo in doubt; 32), the amount remaining at 0.5 h, 1 µM in “in vitro [9]” (Stability) worked out at 75%. In the series with Liver microsomes [2], this compound returned a Stability of 100%. For the same compound, the amount remaining at 0.5 h, 2 µM in the series “in vitro [5]” (Stability) is 71%; in the series “in vitro [7]” (Stability) it was 93%.

On to `O=C(O)C1CC2Cc3[nH]ncc3C(C1)N2S(=O)(=O)c1ccc(Cl)cc1` (stereo unspecified), for which the Stability entry (in the series on Liver microsomes [2]; in series [3]; in series [10]; in the series on Liver microsomes [11]) was “Not Active” each time.

Take `O=S(=O)(c1ccc(Cl)cc1)N1C2CCCC1c1cn[nH]c1C2` (stereo unspecified): in series [1], the half-life came out at 0.4 h. In addition, the values for the share remaining at 0.5 h, 1 µM in the series “in vitro [9]” (Stability) and in the series “in vitro [12]” (Stability) were 15% and 48%, respectively. The same compound registered a bioavailability in series [4] of 2%. Moreover, the amount remaining at 0.5 h, 2 µM in “in vitro [5]” (Stability) came to 0%; in “in vitro [7]” (Stability), 5%. Besides, the clearance in [6] was 2.33 L/h/kg. In series [8], the AUC is 160 nM·h.

For `CS(=O)(=O)N1CC2Cc3[nH]ncc3C(C1)N2S(=O)(=O)c1ccc(Cl)cc1` (stereo unspecified), the figures for the share remaining at 0.5 h, 1 µM in “in vitro [9]” and in the series “in vitro [12]” were 80% and 84%, respectively. In addition, the share remaining at 0.5 h, 2 µM is 55% in “in vitro [5]” and 96% in the series “in vitro [7]”.

Regarding `N#CC1CC2Cc3[nH]ncc3C(C1)N2S(=O)(=O)c1ccc(Cl)cc1` (stereo in doubt; form 2), the share remaining at 0.5 h, 1 µM in “in vitro [9]” (Stability) came to 86%; in the series “in vitro [12]” (Stability), 68%. Also, the Stability entry (in series [10]; in the series on Liver microsomes [11]) was “Not Active” each time.

Turning to `O=S(=O)(c1ccc(Cl)cc1)N1C2Cc3[nH]ncc3C1CC(/C=C/Cl)C2` (stereo unspecified), the amount remaining at 0.5 h, 1 µM in the series “in vitro [9]” (Stability) amounted to 7%; in “in vitro [12]” (Stability) it was 6%. Moreover, the fraction remaining at 0.5 h, 2 µM in “in vitro [5]” (Stability) amounted to 1%; in the series “in vitro [7]” (Stability), 37%.

Turning to `CN(C)C(=O)N1CC2Cc3[nH]ncc3C(C1)N2S(=O)(=O)c1ccc(Cl)cc1` (stereo unspecified), the results for the share remaining at 0.5 h, 1 µM in the series “in vitro [9]” (Stability) and in the series “in vitro [12]” (Stability) were 56% and 86%, respectively. Moreover, the Stability entry (in series [10]; in the series on Liver microsomes [11]) was “Not Active” throughout.

As to `Cl.O=S(=O)(c1ccc(Cl)cc1)N1C2COCC1c1cn[nH]c1C2` (stereo unspecified), the Stability in the series with Liver microsomes [2] stood at 81%; in [3], 78%; in series [10], 94%; in the series with Liver microsomes [11] it was 71%.
